Calls of active or inactive are those of the source. The rule behind the calls is not given here.
Key:
[1] = molecular target: Phosphatidylinositol 4,5-bisphosphate 3-kinase catalytic subunit gamma isoform (Homo sapiens, UniProt P48736); test: Inhibition of PI3Kgamma (unknown origin) using PIP2 as substrate measured after 15 to 30 mins by fluorescence polarization assay
[2] = molecular target: Serine/threonine-protein kinase D1 (Homo sapiens) (UniProt Q15139); test: Inhibition of recombinant human full length GST-tagged PRKD1 expressed in insect cells at 2 uM using Ser/Thr 17 as substrate measured after 1 hr by Z'-LYTE assay relative to control; settings: Insect cell
[3] = molecular target: Megakaryocyte-associated tyrosine-protein kinase (Homo sapiens) (UniProt P42679); test: Inhibition of recombinant human full length His-tagged MATK expressed in E. coli at 2 uM using Tyr 01 as substrate measured after 1 hr by Z'-LYTE assay relative to control
PC3MM2 = test: Antitumor activity against human PC3MM2 cells xenografted in female nude mouse model assessed as suppression in P-S6K at T389 level at 50 mg/kg, iv administered once a week and measured at least 8 hrs by immunoblot analysis; assay type: functional, organism-based
[4] = molecular target: Vascular endothelial growth factor receptor 2 (Homo sapiens) (UniProt P35968); test: Inhibition of recombinant human His-tagged KDR (789-1356 residues) expressed in insect cells at 2 uM using […] as substrate measured after 1 hr by Z'-LYTE assay relative to control; settings: Insect cell
Rat1 [5] = test: Inhibition of mTORC1 in rat Rat1 cells assessed as S6K phosphorylation at T389 level preincubated for 1 hrs in the presence of IGF-1 stimulation by immunoblot assay; assay type: cell-based; settings: dose 0.01-2 µmol/L
[6] = Inhibition of recombinant human GST-tagged ROCK1 (1-552 residues) expressed in insect cells at 2 uM using Ser/Thr 13 as substrate measured after 1 hr by Z'-LYTE assay relative to control; settings: Insect cell, condition cancer
[7] = molecular target: G protein-coupled receptor kinase 4 (Homo sapiens) (UniProt P32298); test: Inhibition of recombinant human full-length GST-tagged GRK4 expressed in insect cells at 2 uM using Ser/Thr 16 as substrate measured after 1 hr by Z'-LYTE assay relative to control; settings: Insect cell
[8] = molecular target: Glycogen synthase kinase-3 beta (Homo sapiens) (UniProt P49841); test: Inhibition of recombinant human full-length His-tagged GSK3B expressed in baculovirus expression system at 2 uM using Ser/Thr 09 as substrate measured after 1 hr by Z'-LYTE assay relative to control
[9] = molecular target: Protein kinase C beta type (Homo sapiens) (UniProt P05771); test: Inhibition of recombinant human full length GST-tagged PRKCB1 expressed in baculovirus expression system at 2 uM using Ser/Thr 07 as substrate measured after 1 hr by Z'-LYTE assay relative to control
mTORC1 (Homo sapiens) = mTORC1 (Homo sapiens) (UniProt P42345+Q8N122+Q9BVC4); settings: U-87 MG, dose 0.025-2 µmol/L, time 6.0 hrs
Rat1 [10] = test: Inhibition of mTORC2 in rat Rat1 cells assessed as AKT phosphorylation at S473 level preincubated for 1 hrs in the presence of IGF-1 stimulation by immunoblot assay; assay type: cell-based; settings: dose 0.01-2 µmol/L
[11] = molecular target: Activin receptor type-1B (Homo sapiens) (UniProt P36896); test: Inhibition of recombinant human GST-tagged ACVR1B (150 to 505 residues) expressed in insect cells at 2 uM using Ser/Thr 16 as substrate measured after 1 hr by Z'-LYTE assay relative to control; settings: Insect cell
HT-29 = test: Antitumor activity against human HT-29 cells xenografted in female nude mouse model assessed as reduction in P-AKT at T308 level at 50 mg/kg, iv administered once a week and measured at least 8 hrs by immunoblot analysis; assay type: functional, organism-based
[12] = test system: Tyrosine-protein kinase ABL1 (Homo sapiens), P00519 [T315I]; test: Inhibition of recombinant human full-length His-tagged ABL1 T315I mutant expressed in insect cells at 2 uM using Tyr 02 as substrate measured after 1 hr by Z'-LYTE assay relative to control; settings: Insect cell
PI3K p110 beta/p85 alpha = PI3K p110 beta/p85 alpha (Homo sapiens, UniProt P42338); test: Inhibition of p110beta/p85alpha (unknown origin) using PIP2 as substrate measured after 15 to 30 mins by fluorescence polarization assay; assay type: protein-complex assay
[13] = molecular target: Casein kinase I isoform alpha (Homo sapiens) (UniProt P48729); test: Inhibition of recombinant human full-length GST-tagged CSNK1A1 at 2 uM using Ser/Thr 11 as substrate measured after 1 hr by Z'-LYTE assay relative to control
[14] = molecular target: Tyrosine-protein kinase Mer (Homo sapiens) (UniProt Q12866); test: Inhibition of recombinant human GST-tagged MERTK (578-872 residues) expressed in insect cells at 2 uM using Tyr 02 as substrate measured after 1 hr by Z'-LYTE assay relative to control; settings: Insect cell
[15] = molecular target: Homeodomain-interacting protein kinase 4 (Homo sapiens) (UniProt Q8NE63); test: Inhibition of recombinant human full-length GST-tagged HIPK4 expressed in insect cells at 2 uM using Ser/Thr 18 as substrate measured after 1 hr by Z'-LYTE assay relative to control; settings: Insect cell
MDA-MB-361 [16] = test: Antitumor activity against human MDA-MB-361 cells xenografted in female nude mouse model assessed as P-AKT at T308 level at 6 to 12 mg/kg, po qd administered as 5 days on/2 days off regimen for 4 cycles by immunoblot analysis; assay type: functional, organism-based; settings: dose 6-12 mg/kg, time 28.0 day
A549 = test: Antitumor activity against VHL null-human A549 cells xenografted in female nude mouse model assessed as suppression in tumor growth at 25 mg/kg, po qd administered as 5 days on/2 days off regimen for 4 cycles relative to control; assay type: functional; settings: time 28 day
[17] = test system: Tyrosine-protein kinase ABL1 (Homo sapiens), P00519 [Y253F]; test: Inhibition of recombinant human full-length His-tagged ABL1 Y253F mutant expressed in insect cells at 2 uM using Tyr 02 as substrate measured after 1 hr by Z'-LYTE assay relative to control; settings: Insect cell
[18] = molecular target: Aurora kinase A (Homo sapiens) (UniProt O14965); test: Inhibition of recombinant human full-length His-tagged AURKA expressed in insect cells at 2 uM using Ser/Thr 01 as substrate measured after 1 hr by Z'-LYTE assay relative to control; settings: Insect cell
MDA-MB-361 [19] = test: Antitumor activity against human MDA-MB-361 cells assessed as reduction in oxygen consumption rate at 1 micromol/L incubated for 1 hrs relative to control; assay type: functional; set-up: scale not given: the % may be the effect or the level left; settings: dose 1 µmol/L, at 1 µM
[20] = molecular target: Serine/threonine-protein kinase PAK 6 (Homo sapiens) (UniProt Q9NQU5); test: Inhibition of recombinant human full length His-tagged PAK6 expressed in insect cells at 2 uM using Ser/Thr 20 as substrate measured after 1 hr by Z'-LYTE assay relative to control; settings: Insect cell
mTORC2 (Homo sapiens) = mTORC2 (Homo sapiens) (UniProt P42345+Q6R327+Q9BVC4+Q9BPZ7); settings: U-87 MG, dose 0.025-2 µmol/L, time 6.0 hrs

Chain of Casein kinase I isoform alpha (Homo sapiens) (P48729 2-337 limits assumed): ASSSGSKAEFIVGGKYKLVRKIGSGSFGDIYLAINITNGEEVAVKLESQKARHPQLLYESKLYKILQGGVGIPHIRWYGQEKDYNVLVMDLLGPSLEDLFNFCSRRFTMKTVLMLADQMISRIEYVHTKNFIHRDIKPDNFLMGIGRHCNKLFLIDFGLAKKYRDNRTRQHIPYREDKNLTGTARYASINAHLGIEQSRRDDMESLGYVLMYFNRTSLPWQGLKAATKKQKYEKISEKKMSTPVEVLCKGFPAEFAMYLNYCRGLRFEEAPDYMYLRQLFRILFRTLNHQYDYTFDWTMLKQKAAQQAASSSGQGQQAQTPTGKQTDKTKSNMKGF
Chain of Protein kinase C beta type (Homo sapiens) (P05771 2-671 limits assumed): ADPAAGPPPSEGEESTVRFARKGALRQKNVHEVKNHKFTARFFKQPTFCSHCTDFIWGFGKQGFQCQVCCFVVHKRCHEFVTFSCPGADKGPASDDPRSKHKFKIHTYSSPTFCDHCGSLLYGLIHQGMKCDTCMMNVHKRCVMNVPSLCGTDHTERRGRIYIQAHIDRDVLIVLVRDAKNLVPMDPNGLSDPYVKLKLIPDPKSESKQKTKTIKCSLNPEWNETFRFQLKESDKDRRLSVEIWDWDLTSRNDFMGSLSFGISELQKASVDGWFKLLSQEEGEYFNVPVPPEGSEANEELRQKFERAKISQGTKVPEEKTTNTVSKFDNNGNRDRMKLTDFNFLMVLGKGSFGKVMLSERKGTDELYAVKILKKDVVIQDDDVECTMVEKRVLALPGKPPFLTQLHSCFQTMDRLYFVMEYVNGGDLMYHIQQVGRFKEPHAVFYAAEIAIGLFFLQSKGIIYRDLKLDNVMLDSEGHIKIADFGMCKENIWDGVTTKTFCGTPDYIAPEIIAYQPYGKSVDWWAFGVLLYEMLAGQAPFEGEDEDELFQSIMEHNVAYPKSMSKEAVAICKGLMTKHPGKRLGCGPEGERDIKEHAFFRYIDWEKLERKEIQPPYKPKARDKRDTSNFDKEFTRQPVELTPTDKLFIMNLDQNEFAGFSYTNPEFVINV
Chain of Vascular endothelial growth factor receptor 2 (Homo sapiens) (P35968 whole entry, the tested form may be a part): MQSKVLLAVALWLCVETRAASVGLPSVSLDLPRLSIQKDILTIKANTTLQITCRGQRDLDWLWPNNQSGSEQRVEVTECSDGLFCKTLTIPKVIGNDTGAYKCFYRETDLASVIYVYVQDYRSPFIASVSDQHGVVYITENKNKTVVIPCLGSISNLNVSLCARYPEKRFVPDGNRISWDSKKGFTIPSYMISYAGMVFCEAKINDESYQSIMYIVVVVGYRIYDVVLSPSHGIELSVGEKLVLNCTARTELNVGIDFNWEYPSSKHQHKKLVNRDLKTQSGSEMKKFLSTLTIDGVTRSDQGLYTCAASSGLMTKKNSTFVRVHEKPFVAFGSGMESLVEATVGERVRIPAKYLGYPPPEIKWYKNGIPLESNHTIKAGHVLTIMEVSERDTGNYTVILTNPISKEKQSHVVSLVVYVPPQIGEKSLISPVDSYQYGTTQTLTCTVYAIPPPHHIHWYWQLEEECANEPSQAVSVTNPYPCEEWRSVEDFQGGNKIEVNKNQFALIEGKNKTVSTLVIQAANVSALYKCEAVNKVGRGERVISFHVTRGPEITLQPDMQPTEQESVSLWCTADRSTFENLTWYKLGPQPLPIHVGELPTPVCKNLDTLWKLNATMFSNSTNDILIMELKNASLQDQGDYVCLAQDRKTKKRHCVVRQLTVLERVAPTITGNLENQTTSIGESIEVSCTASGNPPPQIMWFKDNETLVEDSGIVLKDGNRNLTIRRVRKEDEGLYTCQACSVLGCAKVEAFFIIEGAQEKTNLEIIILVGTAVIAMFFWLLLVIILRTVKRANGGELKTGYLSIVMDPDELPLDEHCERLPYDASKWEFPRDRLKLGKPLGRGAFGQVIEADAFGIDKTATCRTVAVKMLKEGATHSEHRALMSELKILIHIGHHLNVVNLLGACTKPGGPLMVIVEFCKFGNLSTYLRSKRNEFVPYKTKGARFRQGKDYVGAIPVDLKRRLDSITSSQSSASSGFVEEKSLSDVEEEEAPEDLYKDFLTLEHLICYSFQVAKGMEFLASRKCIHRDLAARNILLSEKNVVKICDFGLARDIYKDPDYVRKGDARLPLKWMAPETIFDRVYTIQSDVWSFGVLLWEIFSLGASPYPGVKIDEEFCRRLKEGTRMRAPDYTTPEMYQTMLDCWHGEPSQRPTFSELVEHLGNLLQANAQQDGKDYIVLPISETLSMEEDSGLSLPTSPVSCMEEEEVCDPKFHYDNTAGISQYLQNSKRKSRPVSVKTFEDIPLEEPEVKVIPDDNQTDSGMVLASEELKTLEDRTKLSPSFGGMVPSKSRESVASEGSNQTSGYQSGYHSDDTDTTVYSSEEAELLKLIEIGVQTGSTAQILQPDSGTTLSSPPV
Chain of Glycogen synthase kinase-3 beta (Homo sapiens) (P49841 whole entry, looked up): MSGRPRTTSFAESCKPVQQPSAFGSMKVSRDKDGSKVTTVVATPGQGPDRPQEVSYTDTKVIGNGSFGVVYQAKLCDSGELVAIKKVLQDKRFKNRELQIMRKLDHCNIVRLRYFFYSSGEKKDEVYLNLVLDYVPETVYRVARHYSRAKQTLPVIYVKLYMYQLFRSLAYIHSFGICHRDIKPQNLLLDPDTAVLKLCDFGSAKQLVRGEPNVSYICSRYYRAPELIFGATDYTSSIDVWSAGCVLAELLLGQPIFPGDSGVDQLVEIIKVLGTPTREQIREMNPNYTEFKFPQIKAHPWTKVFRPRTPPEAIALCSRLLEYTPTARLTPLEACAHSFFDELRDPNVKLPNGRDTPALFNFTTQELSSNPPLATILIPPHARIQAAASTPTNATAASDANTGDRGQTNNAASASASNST
Chain of PI3K p110 beta/p85 alpha (P27986 whole entry, canonical isoform): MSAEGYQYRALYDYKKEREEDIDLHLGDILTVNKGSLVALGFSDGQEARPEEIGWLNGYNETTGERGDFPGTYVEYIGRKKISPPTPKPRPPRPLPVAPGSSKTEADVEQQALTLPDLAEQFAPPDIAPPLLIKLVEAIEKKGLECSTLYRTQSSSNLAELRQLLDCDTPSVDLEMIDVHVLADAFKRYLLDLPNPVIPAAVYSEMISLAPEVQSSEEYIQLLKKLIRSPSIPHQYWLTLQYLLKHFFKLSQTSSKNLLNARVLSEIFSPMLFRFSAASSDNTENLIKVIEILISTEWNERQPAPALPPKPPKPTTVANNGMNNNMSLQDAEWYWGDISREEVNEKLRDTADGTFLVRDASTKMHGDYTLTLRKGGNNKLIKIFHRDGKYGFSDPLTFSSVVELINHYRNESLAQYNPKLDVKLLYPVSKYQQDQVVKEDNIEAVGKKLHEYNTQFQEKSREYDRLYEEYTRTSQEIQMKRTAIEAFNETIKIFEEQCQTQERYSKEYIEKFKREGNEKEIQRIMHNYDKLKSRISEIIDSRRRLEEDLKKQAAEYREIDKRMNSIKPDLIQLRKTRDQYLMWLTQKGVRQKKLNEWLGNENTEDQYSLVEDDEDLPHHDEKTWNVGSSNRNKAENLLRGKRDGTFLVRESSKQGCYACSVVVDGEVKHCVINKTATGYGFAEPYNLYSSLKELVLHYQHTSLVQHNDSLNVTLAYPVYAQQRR
Chain of PI3K p110 beta/p85 alpha (P42338 whole entry, canonical isoform): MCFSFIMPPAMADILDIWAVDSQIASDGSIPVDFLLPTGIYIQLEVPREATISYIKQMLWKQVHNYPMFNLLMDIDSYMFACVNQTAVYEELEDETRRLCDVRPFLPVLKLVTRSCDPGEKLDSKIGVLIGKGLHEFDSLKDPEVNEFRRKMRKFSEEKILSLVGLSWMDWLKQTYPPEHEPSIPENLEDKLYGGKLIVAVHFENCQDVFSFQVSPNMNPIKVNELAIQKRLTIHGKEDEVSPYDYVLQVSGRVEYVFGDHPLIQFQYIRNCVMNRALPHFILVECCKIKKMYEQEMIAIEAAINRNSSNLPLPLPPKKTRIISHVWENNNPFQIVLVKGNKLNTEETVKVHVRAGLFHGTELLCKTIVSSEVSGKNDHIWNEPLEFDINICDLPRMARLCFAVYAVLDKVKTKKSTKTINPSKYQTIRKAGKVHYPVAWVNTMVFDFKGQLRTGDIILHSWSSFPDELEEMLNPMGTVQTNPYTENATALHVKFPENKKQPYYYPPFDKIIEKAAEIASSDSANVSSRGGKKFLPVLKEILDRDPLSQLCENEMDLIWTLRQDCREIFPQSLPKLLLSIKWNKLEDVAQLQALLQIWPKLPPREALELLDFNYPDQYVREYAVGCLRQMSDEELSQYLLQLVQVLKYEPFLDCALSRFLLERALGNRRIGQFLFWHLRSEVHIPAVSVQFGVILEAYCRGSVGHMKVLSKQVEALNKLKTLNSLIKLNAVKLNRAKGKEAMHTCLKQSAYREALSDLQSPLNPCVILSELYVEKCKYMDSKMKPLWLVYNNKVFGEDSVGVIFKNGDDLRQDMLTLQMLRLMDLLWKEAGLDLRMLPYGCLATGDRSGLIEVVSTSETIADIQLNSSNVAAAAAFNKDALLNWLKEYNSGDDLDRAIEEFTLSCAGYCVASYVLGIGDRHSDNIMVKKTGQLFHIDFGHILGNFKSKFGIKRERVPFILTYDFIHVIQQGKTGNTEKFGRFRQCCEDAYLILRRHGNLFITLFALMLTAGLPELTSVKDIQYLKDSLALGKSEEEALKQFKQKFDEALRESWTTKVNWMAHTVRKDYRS
Chain of Aurora kinase A (Homo sapiens) (O14965 whole entry): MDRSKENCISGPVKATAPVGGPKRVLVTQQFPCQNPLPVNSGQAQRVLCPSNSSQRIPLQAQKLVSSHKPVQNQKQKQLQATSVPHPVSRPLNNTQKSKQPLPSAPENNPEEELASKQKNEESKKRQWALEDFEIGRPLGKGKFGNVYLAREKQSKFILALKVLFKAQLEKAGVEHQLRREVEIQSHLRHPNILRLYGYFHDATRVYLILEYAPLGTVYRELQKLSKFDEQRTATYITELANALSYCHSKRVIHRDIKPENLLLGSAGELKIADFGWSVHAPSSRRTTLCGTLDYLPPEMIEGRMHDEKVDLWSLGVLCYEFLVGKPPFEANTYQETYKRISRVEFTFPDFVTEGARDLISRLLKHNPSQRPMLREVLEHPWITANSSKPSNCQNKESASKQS

For `CNC(=O)Nc1ccc(-c2nc(N3CC4CCC(C3)O4)c3cnn(C4CCC5(CC4)OCCO5)c3n2)cc1`, which IC50 [1] is on record?
Its IC50 is greater than 10 µM.

What about the inhibition [2] of the same molecule?
The inhibition was 0%.

What about the inhibition [3] of the same molecule?
The inhibition was 2%.

And the Activity (PC3MM2)?
The Activity was “Active”.

And the inhibition [4]?
The inhibition was 7%.

What about the inhibition (Rat1 [5]) of the same molecule?
Its inhibition is “Active”.

And the inhibition at 2 µM [6]?
Its inhibition at 2 µM is 5%.

What about the inhibition [7] of the same molecule?
Its inhibition is -4%.

What about the inhibition [8] of the same molecule?
The inhibition was 1%.

What about the inhibition [9] of the same molecule?
Its inhibition is 11%.

What about the inhibition (mTORC1 (Homo sapiens)) of the same molecule?
The inhibition was “Active”.

What about the inhibition (Rat1 [10]) of the same molecule?
The inhibition was “Active”.

What about the inhibition [11] of the same molecule?
The inhibition was 3%.

And the Activity (HT-29)?
Its Activity is “inactive”.

What about the inhibition [12] of the same molecule?
Its inhibition is 0%.

What about the IC50 (PI3K p110 beta/p85 alpha) of the same molecule?
The IC50 was greater than 10 µM.

What about the inhibition [13] of the same molecule?
Its inhibition is 2%.

What about the inhibition [14] of the same molecule?
The inhibition was 1%.

What about the inhibition [15] of the same molecule?
Its inhibition is 7%.

And the Activity (MDA-MB-361 [16])?
The Activity was “inactive”.

What about the Activity (A549) of the same molecule?
Its Activity is 100%.

And the inhibition [17]?
Its inhibition is 0%.

And the inhibition [18]?
The inhibition was 0%.

And the Activity (MDA-MB-361 [19])?
Its Activity is 35%.

And the inhibition [20]?
Its inhibition is 9%.

And the inhibition (mTORC2 (Homo sapiens))?
The inhibition was “Active”.

From ChEMBL document CHEMBL5696439 (Cancer Res, 2010)
